For assay [1], the target named is EGFR Del19/T790M/C797S (Homo sapiens, UniProt P00533, C797S/DEL746-750/T790M). Put plainly: Biochemical EGFR kinase inhibition assay (Lance Ultra TR-FRET), triple mutant del19/T790M/C797S. The method in brief: (§1)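 Step 1: compound in kinase buffer, 0.003–10 μM. Step 2: kinase reaction 1 h at room temperature. Step 4: TR-FRET read at 615/665 nm; IC50 calculated.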
A general note: Time-resolved FRET reads energy transfer from a long-lived donor to a nearby acceptor.

Assay [2] addresses EGFR L858R/C797S (Homo sapiens, UniProt P00533, C797S/L858R). Put plainly: Biochemical EGFR kinase inhibition assay (Lance Ultra TR-FRET), double mutant L858R/C797S. The essentials:
as §1

Assay [3] deals with EGFR Del19/C797S (Homo sapiens, UniProt P00533, C797S/DEL746-750). Put plainly: Biochemical EGFR kinase inhibition assay (Lance Ultra TR-FRET), double mutant del19/C797S. The method in brief:
as §1

The target in assay [4] is EGFR wildtype (WT) (Homo sapiens, UniProt P00533). Put plainly: Biochemical EGFR kinase inhibition assay (Lance Ultra TR-FRET), wildtype. The essentials: as §1
The target of assay [5] is EGFR L858R/T790M/C797S (Homo sapiens, UniProt P00533, C797S/L858R/T790M). The assay is described as follows: Biochemical EGFR kinase inhibition assay (Lance Ultra TR-FRET), triple mutant L858R/T790M/C797S. The essentials:
as §1

Setting [6] is: IC50 Del19/T790M/C797S (nM), 100 μM ATP.
Setting [7] is: Km ATP, read-out: IC50 Del19/T790M/C797S (nM) Km ATP.
Setting [8] is: IC50 L858R/C797S (nM), 100 μM ATP.
Where [9] appears, read: Km ATP, read-out: IC50 L858R/C797S (nM) Km ATP.
[10] abbreviates: IC50 Del19/C797S (nM), 100 μM ATP.
Where [11] appears, read: Km ATP, read-out: IC50 Del19/C797S (nM) Km ATP.
The mark [12] stands for this setting: Km ATP, read-out: IC50 WT (nM) Km ATP.
Where [13] appears, read: IC50 L858R/T790M/C797S (nM), 100 μM ATP.
[14] abbreviates: Km ATP, read-out: IC50 L858R/T790M/C797S (nM) Km ATP.
The mark [15] stands for this setting: Km ATP, read-out: IC50 Del19/T790M/C797S (nM), Km ATP.
The mark [16] stands for this setting: Km ATP, read-out: IC50 L858R/C797S (nM), Km ATP.
Setting [17] is: Km ATP, read-out: IC50 Del19/C797S (nM), Km ATP.
[18] abbreviates: Km ATP, read-out: IC50 WT (nM), Km ATP.
The mark [19] stands for this setting: Km ATP, read-out: IC50 L858R/T790M/C797S (nM), Km ATP.
Where [20] appears, read: ATP at Km, read-out: IC50 Del19/T790M/C797S (nM), Km ATP.
The mark [21] stands for this setting: ATP at Km, read-out: IC50 L858R/C797S (nM), Km ATP.
[22] abbreviates: ATP at Km, read-out: IC50 Del19/C797S (nM), Km ATP.
Where [23] appears, read: ATP at Km, read-out: IC50 WT (nM), Km ATP.
The mark [24] stands for this setting: ATP at Km, read-out: IC50 L858R/T790M/C797S (nM), Km ATP.

Our source for the IC50 values is patent US11981658B2, “Substituted aminopyridine compounds as EGFR inhibitors” (YUHAN CORPORATION, priority 2021, dated 2024).

Like-named read-outs stand apart in the source and are kept apart here. Some results are limits rather than exact numbers.

EGFR Del19/C797S, sequence (P00533 with tags, fused parts or gaps DEL746-750/C797S): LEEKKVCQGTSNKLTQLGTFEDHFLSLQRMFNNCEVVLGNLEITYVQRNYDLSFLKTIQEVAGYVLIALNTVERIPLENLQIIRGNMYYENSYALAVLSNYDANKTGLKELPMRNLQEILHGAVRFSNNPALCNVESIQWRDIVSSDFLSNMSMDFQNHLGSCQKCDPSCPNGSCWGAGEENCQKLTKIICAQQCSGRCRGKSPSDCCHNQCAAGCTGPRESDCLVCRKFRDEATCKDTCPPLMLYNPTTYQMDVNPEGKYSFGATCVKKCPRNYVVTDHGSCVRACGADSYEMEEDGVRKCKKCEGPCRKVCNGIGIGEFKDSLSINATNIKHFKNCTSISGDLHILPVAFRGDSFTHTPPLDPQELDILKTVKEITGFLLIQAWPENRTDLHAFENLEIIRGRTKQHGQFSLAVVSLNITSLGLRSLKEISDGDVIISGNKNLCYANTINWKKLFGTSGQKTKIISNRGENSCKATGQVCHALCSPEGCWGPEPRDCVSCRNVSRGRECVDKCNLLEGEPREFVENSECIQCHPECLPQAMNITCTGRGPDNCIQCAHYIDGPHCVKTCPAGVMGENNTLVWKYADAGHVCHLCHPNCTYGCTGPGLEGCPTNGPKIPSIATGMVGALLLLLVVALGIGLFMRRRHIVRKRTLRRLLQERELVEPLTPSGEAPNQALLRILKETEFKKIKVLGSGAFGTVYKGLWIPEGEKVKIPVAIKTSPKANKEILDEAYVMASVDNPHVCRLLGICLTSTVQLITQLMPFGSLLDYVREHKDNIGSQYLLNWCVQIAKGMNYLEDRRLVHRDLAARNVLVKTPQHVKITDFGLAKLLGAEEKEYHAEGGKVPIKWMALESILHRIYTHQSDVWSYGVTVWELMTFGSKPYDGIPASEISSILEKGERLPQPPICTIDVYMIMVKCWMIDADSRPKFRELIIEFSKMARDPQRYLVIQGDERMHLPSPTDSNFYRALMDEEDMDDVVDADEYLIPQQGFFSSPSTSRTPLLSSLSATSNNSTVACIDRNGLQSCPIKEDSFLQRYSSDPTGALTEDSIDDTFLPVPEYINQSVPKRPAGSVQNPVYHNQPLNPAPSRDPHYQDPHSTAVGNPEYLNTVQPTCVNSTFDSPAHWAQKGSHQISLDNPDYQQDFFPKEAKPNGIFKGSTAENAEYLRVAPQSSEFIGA
EGFR L858R/C797S, sequence (P00533 25-1210 C797S/L858R): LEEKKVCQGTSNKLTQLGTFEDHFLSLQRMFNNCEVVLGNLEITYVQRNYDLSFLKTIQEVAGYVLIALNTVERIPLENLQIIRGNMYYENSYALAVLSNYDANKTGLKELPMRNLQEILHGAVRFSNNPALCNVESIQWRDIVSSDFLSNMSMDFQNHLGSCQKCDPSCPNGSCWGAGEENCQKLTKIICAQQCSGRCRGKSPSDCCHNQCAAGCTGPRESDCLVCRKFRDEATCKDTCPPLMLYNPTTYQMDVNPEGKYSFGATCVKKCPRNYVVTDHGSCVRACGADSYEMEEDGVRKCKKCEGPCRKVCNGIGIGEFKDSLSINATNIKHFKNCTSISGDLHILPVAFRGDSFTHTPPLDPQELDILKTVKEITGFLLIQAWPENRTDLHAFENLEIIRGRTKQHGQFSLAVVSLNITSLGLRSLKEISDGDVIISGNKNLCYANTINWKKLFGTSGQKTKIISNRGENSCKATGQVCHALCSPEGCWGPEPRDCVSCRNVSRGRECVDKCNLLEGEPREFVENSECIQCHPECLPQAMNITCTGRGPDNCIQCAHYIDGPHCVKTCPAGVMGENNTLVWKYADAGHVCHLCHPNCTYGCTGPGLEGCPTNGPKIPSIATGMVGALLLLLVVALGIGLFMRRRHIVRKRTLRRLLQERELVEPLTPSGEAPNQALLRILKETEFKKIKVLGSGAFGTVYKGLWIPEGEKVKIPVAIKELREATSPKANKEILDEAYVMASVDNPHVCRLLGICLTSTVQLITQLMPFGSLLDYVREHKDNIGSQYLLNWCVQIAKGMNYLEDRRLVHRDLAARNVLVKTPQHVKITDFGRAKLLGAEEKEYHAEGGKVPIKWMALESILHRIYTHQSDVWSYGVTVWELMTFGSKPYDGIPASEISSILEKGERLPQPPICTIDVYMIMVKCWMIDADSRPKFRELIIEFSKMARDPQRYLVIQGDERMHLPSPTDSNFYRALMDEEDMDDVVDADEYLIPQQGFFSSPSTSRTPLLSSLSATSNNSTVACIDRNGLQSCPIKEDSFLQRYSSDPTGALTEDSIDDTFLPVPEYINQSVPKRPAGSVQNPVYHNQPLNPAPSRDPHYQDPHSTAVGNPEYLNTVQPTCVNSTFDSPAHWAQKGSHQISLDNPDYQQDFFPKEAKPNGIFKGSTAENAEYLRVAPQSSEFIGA
EGFR Del19/T790M/C797S, sequence (P00533 with tags, fused parts or gaps DEL746-750/T790M/C797S): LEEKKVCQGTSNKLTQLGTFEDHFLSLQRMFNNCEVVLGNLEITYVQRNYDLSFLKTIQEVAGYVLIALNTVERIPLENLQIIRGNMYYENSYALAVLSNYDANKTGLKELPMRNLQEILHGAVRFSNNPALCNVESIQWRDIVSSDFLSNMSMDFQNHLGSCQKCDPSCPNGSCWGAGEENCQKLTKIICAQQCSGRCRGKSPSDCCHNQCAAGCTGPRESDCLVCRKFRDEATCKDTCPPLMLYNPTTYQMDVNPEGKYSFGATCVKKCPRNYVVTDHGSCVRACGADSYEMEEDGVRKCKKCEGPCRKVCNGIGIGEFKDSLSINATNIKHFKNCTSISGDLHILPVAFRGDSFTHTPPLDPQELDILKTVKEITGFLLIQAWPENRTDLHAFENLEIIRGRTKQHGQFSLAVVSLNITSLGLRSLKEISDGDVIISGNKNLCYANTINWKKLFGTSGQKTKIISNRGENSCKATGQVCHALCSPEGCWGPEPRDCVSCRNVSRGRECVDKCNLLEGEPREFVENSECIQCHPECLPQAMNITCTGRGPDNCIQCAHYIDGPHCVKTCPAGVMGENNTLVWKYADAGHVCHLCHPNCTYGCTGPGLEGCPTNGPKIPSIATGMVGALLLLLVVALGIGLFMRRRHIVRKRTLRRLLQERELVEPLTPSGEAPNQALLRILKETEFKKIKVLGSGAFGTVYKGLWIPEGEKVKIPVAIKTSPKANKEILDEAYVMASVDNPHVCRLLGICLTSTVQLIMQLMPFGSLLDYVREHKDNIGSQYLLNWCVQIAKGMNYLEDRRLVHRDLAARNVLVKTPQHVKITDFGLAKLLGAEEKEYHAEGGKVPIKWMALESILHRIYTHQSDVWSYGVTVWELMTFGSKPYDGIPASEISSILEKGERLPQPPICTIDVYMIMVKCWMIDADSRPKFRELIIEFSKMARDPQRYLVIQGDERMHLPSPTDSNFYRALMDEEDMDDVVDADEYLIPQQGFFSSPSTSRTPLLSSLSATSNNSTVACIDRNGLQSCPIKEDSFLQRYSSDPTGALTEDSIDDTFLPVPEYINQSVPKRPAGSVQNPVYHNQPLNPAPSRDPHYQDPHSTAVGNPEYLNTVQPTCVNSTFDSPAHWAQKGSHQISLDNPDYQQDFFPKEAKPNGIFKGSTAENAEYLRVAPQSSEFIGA
EGFR wildtype (WT), sequence (P00533 25-1210): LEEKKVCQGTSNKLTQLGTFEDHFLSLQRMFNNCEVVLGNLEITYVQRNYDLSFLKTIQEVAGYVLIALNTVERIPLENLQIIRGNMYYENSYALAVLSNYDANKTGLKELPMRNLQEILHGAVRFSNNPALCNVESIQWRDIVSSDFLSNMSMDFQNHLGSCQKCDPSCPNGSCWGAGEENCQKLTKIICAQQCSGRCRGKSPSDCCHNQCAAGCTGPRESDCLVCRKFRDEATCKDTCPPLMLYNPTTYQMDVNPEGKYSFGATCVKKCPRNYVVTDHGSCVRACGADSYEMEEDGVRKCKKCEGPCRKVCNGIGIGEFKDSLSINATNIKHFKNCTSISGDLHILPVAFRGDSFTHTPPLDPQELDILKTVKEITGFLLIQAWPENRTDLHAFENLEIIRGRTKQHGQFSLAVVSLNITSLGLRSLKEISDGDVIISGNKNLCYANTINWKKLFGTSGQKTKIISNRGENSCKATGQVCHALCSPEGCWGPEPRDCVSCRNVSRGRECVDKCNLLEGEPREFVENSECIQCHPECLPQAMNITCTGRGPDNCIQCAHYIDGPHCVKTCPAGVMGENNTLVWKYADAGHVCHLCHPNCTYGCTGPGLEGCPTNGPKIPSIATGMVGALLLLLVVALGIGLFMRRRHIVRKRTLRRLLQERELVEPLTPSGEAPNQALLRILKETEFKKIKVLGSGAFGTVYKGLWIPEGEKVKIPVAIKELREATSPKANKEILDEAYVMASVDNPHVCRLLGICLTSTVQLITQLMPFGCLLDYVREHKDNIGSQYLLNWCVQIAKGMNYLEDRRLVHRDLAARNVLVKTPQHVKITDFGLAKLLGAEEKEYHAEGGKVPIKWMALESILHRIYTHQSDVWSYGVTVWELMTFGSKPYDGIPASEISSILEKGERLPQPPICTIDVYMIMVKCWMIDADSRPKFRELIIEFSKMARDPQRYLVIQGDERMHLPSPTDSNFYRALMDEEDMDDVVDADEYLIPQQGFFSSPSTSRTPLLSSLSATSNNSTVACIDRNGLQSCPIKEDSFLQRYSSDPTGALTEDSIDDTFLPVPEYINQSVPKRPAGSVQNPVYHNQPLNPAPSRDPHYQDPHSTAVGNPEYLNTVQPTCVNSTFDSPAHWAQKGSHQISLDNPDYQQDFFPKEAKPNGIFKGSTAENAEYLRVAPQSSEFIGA

`O=S(=O)(C1CC1)n1cc(-c2nccc(Nc3cc(N4CCC(NCCO)CC4)c(C#Cc4cnn(C5CCOCC5)c4)cn3)n2)cn1` [Example 137, 2-((1-(2-((2-(1-(Cyclopropylsulfonyl)-1H-pyrazol-4-yl)pyrimidin-4-yl)amino)-5-((1-(tetrahydro-2H-pyran-4-yl)-1H-pyrazol-4-yl)ethynyl)pyridin-4-yl)piperidin-4-yl)amino)ethan-1-ol]: the IC50 was 0.4 nM in assay [1] (setting [6]); 0.4 nM in assay [1] (setting [7]); 74.2 nM in assay [2] (setting [8]); 5 nM in assay [2] (setting [9]); 11.7 nM in assay [3] (setting [10]); 8.8 nM in assay [3] (setting [11]). The IC50 in assay [4] (IC50 WT (nM), 100 μM ATP) was over 10000 nM; in assay [4] (setting [12]), 174 nM; in assay [5] (setting [13]) it was 2 nM; in assay [5] (setting [14]), 0.4 nM.
As to `CN1CCN(Cc2ccc(C#Cc3cnc(Nc4ccnc(-c5cnn(S(=O)(=O)C6CC6)c5)n4)cc3N[C@H]3CC[C@@H](CO)CC3)cc2)CC1` [Example 360, ((1s,4s)-4-((2-((2-(1-(Cyclopropylsulfonyl)-1H-pyrazol-4-yl)pyrimidin-4-yl)amino)-5-((4-((4-methylpiperazin-1-yl)methyl)phenyl)ethynyl)pyridin-4-yl)amino)cyclohexyl)methanol], the IC50 amounted to 1.1 nM in assay [1] (setting [6]); 0.8 nM in assay [1] (setting [15]); 7.7 nM in assay [2] (setting [8]); 2.5 nM in assay [2] (setting [16]); 2.7 nM in assay [3] (setting [10]); 2.3 nM in assay [3] (setting [17]). Also, the IC50 in assay [4] (IC50 WT (nM), 100 μM ATP) is 1130 nM; in assay [4] (setting [18]), 3.8 nM; in assay [5] (setting [13]), 0.9 nM; in assay [5] (setting [19]), 0.3 nM.
As to `CN1CCn2ncc(C#Cc3cnc(Nc4ccnc(-c5cnn(S(=O)(=O)C6CC6)c5)n4)cc3N3CCC(C)(CO)CC3)c2C1` [Example 150, (1-(2-((2-(1-(Cyclopropylsulfonyl)-1H-pyrazol-4-yl)pyrimidin-4-yl)amino)-5-((5-methyl-4,5,6,7-tetrahydropyrazolo[1,5-a]pyrazin-3-yl)ethynyl)pyridin-4-yl)-4-methylpiperidin-4-yl)methanol], the IC50 was 0.5 nM in assay [1] (setting [6]); 0.5 nM in assay [1] (setting [7]); 8.9 nM in assay [2] (setting [8]); 2.2 nM in assay [2] (setting [9]); 0.7 nM in assay [3] (setting [10]); 0.8 nM in assay [3] (setting [11]). The IC50 in assay [4] (IC50 WT (nM), 100 μM ATP) was determined as 3760 nM; in assay [4] (setting [12]), 4.9 nM; in assay [5] (setting [13]) it was 0.5 nM; in assay [5] (setting [14]), 0.2 nM.
`CC1(CO)CCN(c2cc(Nc3ccnc(-c4cnn(S(=O)(=O)C5CC5)c4)n3)ncc2C#Cc2ccccc2)CC1` [Example 256, (1-(2-((2-(1-(Cyclopropylsulfonyl)-1H-pyrazol-4-yl)pyrimidin-4-yl)amino)-5-(phenylethynyl)pyridin-4-yl)-4-methylpiperidin-4-yl)methanol]: the IC50 was 20.6 nM in assay [1] (setting [6]); 67.3 nM in assay [2] (setting [8]); 7.6 nM in assay [3] (setting [10]); over 10000 nM in assay [4] (IC50 WT (nM), 100 μM ATP); 17.7 nM in assay [5] (setting [13]).
With `CC1(CO)CCN(c2cc(Nc3ccnc(-c4cnn(S(=O)(=O)C5CC5)c4)n3)ncc2C#Cc2cn(CC(F)F)c3ccncc23)CC1` [Example 249, (1-(2-((2-(1-(Cyclopropylsulfonyl)-1H-pyrazol-4-yl)pyrimidin-4-yl)amino)-5-((1-(2,2-difluoroethyl)-1H-pyrrolo[3,2-c]pyridin-3-yl)ethynyl)pyridin-4-yl)-4-methylpiperidin-4-yl)methanol], the IC50 in assay [1] (setting [20]) was found to be 3.1 nM; in assay [1] (setting [6]) it was 2.6 nM; in assay [2] (setting [21]), 4.7 nM; in assay [2] (setting [8]), 29.7 nM; in assay [3] (setting [22]), 6.9 nM; in assay [3] (setting [10]) it was 7.5 nM. In addition, the IC50 in assay [4] (setting [23]) is 23.9 nM; in assay [4] (IC50 WT (nM), 100 μM ATP), over 10000 nM; in assay [5] (setting [24]), 1.1 nM; in assay [5] (setting [13]) it was 1.9 nM.
In the case of `CN(C)C[C@H]1CC[C@H](CNc2cc(Nc3ccnc(-c4cnn(S(=O)(=O)C5CC5)c4)n3)ncc2C#Cc2cnn(C)c2)CC1` [Example 53, N^2-(2-(1-(Cyclopropylsulfonyl)-1H-pyrazol-4-yl)pyrimidin-4-yl)-N^4-(((1r,4r)-4-((dimethylamino)methyl)cyclohexyl)methyl)-5-((1-methyl-1H-pyrazol-4-yl)ethynyl)pyridine-2,4-diamine], the IC50 in assay [1] (setting [7]) was 0.4 nM; in assay [2] (setting [9]), 141 nM; in assay [3] (setting [11]) it was 5.9 nM; in assay [4] (setting [12]) it was 142 nM; in assay [5] (setting [14]), 0.3 nM.
In the case of `O=S(=O)(C1CC1)n1cc(-c2nccc(Nc3cc(N[C@H]4CC[C@@H](NCCF)CC4)c(C#Cc4cnn(CC(F)(F)F)c4)cn3)n2)cn1` [Example 345, N^2-(2-(1-(Cyclopropylsulfonyl)-1H-pyrazol-4-yl)pyrimidin-4-yl)-N^4-((1s,4s)-4-((2-fluoroethyl)amino)cyclohexyl)-5-((1-(2,2,2-trifluoroethyl)-1H-pyrazol-4-yl)ethynyl)pyridine-2,4-diamine], the IC50 in assay [1] (setting [6]) was 2.7 nM; in assay [1] (setting [15]), 1.5 nM; in assay [2] (setting [8]) it was 45.3 nM; in assay [2] (setting [16]) it was 9.3 nM; in assay [3] (setting [10]), 27.6 nM; in assay [3] (setting [17]), 11 nM. Further, the IC50 in assay [4] (IC50 WT (nM), 100 μM ATP) is 7830 nM; in assay [4] (setting [18]) it was 138 nM; in assay [5] (setting [13]) it was 2.2 nM; in assay [5] (setting [19]), 1.3 nM.
Turning to `CS(=O)(=O)N1CCC(C#Cc2cnc(Nc3ccnc(-c4cnn(S(=O)(=O)C5CC5)c4)n3)cc2NC2CCC(O)CC2)C1` (stereo not shown) [Example 399, (1s,4s)-4-((2-((2-(1-(Cyclopropylsulfonyl)-1H-pyrazol-4-yl)pyrimidin-4-yl)amino)-5-((1-(methylsulfonyl)pyrrolidin-3-yl)ethynyl)pyridin-4-yl)amino)cyclohexan-1-ol], the IC50 in assay [1] (setting [6]) turned out to be 5.7 nM; in assay [1] (setting [15]), 1.3 nM; in assay [2] (setting [8]) it was 28.2 nM; in assay [2] (setting [16]) it was 1.6 nM; in assay [3] (setting [10]), 1.4 nM; in assay [3] (setting [17]) it was 0.6 nM. The IC50 in assay [4] (IC50 WT (nM), 100 μM ATP) is over 10000 nM; in assay [4] (setting [18]), 10.2 nM; in assay [5] (setting [13]), 1.2 nM; in assay [5] (setting [19]), 0.8 nM.
Turning to `Nc1cccc(C#Cc2cnc(Nc3ccnc(-c4cnn(S(=O)(=O)C5CC5)c4)n3)cc2N[C@@H]2CCC[C@H](O)C2)c1` [Example 169, (1 S,3R)-3-((5-((3-Aminophenyl)ethynyl)-2-((2-(1-(cyclopropylsulfonyl)-1H-pyrazol-4-yl)pyrimidin-4-yl)amino)pyridin-4-yl)amino)cyclohexan-1-ol], the IC50 in assay [1] (setting [20]) stood at 7.1 nM; in assay [1] (setting [6]), 3.1 nM; in assay [2] (setting [21]), 30.6 nM; in assay [2] (setting [8]), 391 nM; in assay [3] (setting [22]) it was 4.7 nM; in assay [3] (setting [10]), 10.5 nM. Besides, the IC50 in assay [4] (setting [23]) was 238 nM; in assay [4] (IC50 WT (nM), 100 μM ATP) it was over 10000 nM; in assay [5] (setting [24]) it was 2.6 nM; in assay [5] (setting [13]), 6.8 nM.
On to `COC1CCN(c2cc(Nc3ccnc(-c4cnn(S(=O)(=O)C5CC5)c4)n3)ncc2C#Cc2cnn(C3CCN(C(C)=O)CC3)c2)CC1` [Example 113, 1-(4-(4-((6-((2-(1-(Cyclopropylsulfonyl)-1H-pyrazol-4-yl)pyrimidin-4-yl)amino)-4-(4-methoxypiperidin-1-yl)pyridin-3-yl)ethynyl)-1H-pyrazol-1-yl)piperidin-1-yl)ethan-1-one], for which the IC50 in assay [1] (setting [6]) stood at 1.3 nM; in assay [1] (setting [7]), 1.3 nM; in assay [2] (setting [8]), 11.3 nM; in assay [2] (setting [9]) it was 2.6 nM; in assay [3] (setting [10]), 4 nM; in assay [3] (setting [11]), 3.2 nM. Further, the IC50 in assay [4] (IC50 WT (nM), 100 μM ATP) was 7550 nM; in assay [4] (setting [12]) it was 12 nM; in assay [5] (setting [13]), 2.9 nM; in assay [5] (setting [14]), 0.8 nM.
For the compound `O=S(=O)(C1CC1)n1cc(-c2nccc(Nc3cc(NC[C@H]4CC[C@H](O)CC4)c(C#Cc4cnn(C(F)F)c4)cn3)n2)cn1` [Example 307, (1r,4r)-4-(((2-((2-(1-(Cyclopropylsulfonyl)-1H-pyrazol-4-yl)pyrimidin-4-yl)amino)-5-((1-(difluoromethyl)-1H-pyrazol-4-yl)ethynyl)pyridin-4-yl)amino)methyl)cyclohexan-1-ol], the IC50 was found to be 14.7 nM in assay [1] (setting [20]); 29.6 nM in assay [1] (setting [6]); 21.3 nM in assay [2] (setting [21]); 44.2 nM in assay [2] (setting [8]); 17.2 nM in assay [3] (setting [22]); 37.3 nM in assay [3] (setting [10]). Further, the IC50 in assay [4] (setting [23]) is 87.7 nM; in assay [4] (IC50 WT (nM), 100 μM ATP), over 10000 nM; in assay [5] (setting [24]) it was 0.3 nM; in assay [5] (setting [13]), 35.1 nM.
